# From patent publication US11129389B2, “Gluten-free grain-concentrate substitute for fermented wheat germ food product and method of preparation” (priority 2013, dated 2021)
# Assay: In vivo experiments: activity level after removal of a component
# Details: named component removed from product
# Description: The basis for the disclosure that 2-6 methoxy substituted benzoquinones is not an active component of the present invention is vivo experiments.
row,Molecule,activity level of the present invention when the component was removed
1,2-6 methoxy substituted benzoquinones,remained unchanged
2,"COc1cc(O)cc(OC)c1O [a, 2,6-dimethoxy-1,4-hydroquinone]",decreased
3,"COC1=CC(=O)C=CC1=O [b, monomethoxy-1,4-benzoquinone]",decreased
4,"COc1cc(O)ccc1O [c, monomethoxy-1,4-hydroquinone]",decreased
